Experiments:
Experiment in all cases: relative viability (nuclei count vs DMSO), 5 days (fraction); higher = more cells survive
[1] = compound: CC[C@@H](C)CNCC(=O)N1CCC2=C([C@@H]1COC3=CC=CC(=C3)C)C=CS2 [RU-SKI 43]
Outline: (§1)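 For viability, nuclei in each treated well were divided by nuclei in vehicle wells and the median across plates was taken. Lung cancer cell lines in 1536-well plates were pinned with five library-drug doses (not always all listed) spaced by √10, cultured 5 days without medium change, and imaged at 4× after Hoechst staining, with plates passing only at control CV below 25% and at least one doubling.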

[2] = compound: CCc1c2c(nc3ccc(OC(=O)N4CCC(N5CCCCC5)CC4)cc13)-c1cc3c(c(=O)n1C2)COC(=O)[C@]3(O)CC [Irinotecan]
Outline: as §1

[3] = compound: Cn1cc(-c2cnc3ccc4ccc(CS(=O)(=O)NCc5ccccn5)cc4c(=O)c3c2)cn1 [MK-8033]
Outline: as §1

[4] = compound: CCc1c2c(nc3ccc(OC(=O)N4CCC(N5CCCCC5)CC4)cc13)-c1cc3c(c(=O)n1C2)COC(=O)[C@]3(O)CC [Irinotecan] + Cc1nc(Nc2ncc(C(=O)Nc3c(C)cccc3Cl)s2)cc(N2CCN(CCO)CC2)n1 [Dasatinib] (partner 0.075 µM)
Outline: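 Lung cancer cell lines in 1536-well plates were dosed by pin tool the day after seeding, either with one drug alone or with a fixed anchor-drug dose plus five library-drug doses (not always all listed) in √10 steps. After 5 days, cells were fixed and their nuclei stained in one step (final 0.05% Triton X-100, 1% formaldehyde, 1 ug/ml Hoechst), then counted on 4× images. Relative viability is the nuclei count in treated wells divided by that in vehicle wells. Values are medians of duplicate plates.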

Row | Cell Line | relative viability ([1]; 0.1 µM) | relative viability ([1]; 0.3162 µM) | relative viability ([1]; 1 µM) | relative viability ([1]; 3.162 µM) | relative viability ([1]; 10 µM) | relative viability ([2]; 0.6325 µM) | relative viability ([2]; 2 µM) | relative viability ([2]; 6.325 µM) | relative viability ([2]; 20 µM) | relative viability ([3]; 0.02 µM) | relative viability ([3]; 0.06325 µM) | relative viability ([3]; 0.2 µM) | relative viability ([3]; 0.6325 µM) | relative viability ([3]; 2 µM) | relative viability ([4]; first compound 0.6325 µM) | relative viability ([4]; first compound 2 µM) | relative viability ([4]; first compound 6.325 µM) | relative viability ([4]; first compound 20 µM)
1 | NCI-H2170 | 0.977 | 1.06 | 1.01 | 1.04 | 0.986 | 0.959 | 0.946 | 0.462 | 0.223 | 0.991 | 0.925 | 0.918 | 0.948 | 0.971 | 0.563 | 0.663 | 0.281 | 0.164
2 | NCI-H2228 | 0.937 | 1.27 | 1.31 | 1.01 | 0.601 | 0.706 | 0.868 | 0.484 | 0.409 | 1.03 | 0.839 | 0.878 | 1.06 | 0.89 | 0.443 | 0.481 | 0.318 | 0.246
3 | NCI-H2342 | 0.895 | 0.773 | 0.972 | 1.18 | 0.989 | 0.938 | 0.97 | 1 | 0.575 | 0.988 | 1.11 | 1.12 | 1.13 | 1.13 | 0.304 | 0.278 | 0.299 | 0.377
4 | NCI-H2347 | 0.978 | 1.09 | 1.1 | 0.97 | 0.967 | 0.789 | 0.83 | 0.483 | 0.495 | 1.02 | 1.02 | 0.984 | 1.03 | 1.04 | 0.307 | 0.242 | 0.245 | 0.372
5 | NCI-H2405 | 0.996 | 0.977 | 1.05 | 0.96 | 0.967 | – | 0.953 | 0.426 | 0.217 | 1.02 | 0.944 | 0.94 | 1.02 | 1.01 | – | 0.218 | 0.198 | 0.18
6 | NCI-H3122 | 1.06 | 1.15 | 1.08 | 1.09 | 0.983 | 0.97 | 0.625 | 0.224 | 0.176 | 0.981 | 1.03 | 0.931 | 0.985 | 1.01 | 0.142 | 0.619 | 0.149 | 0.117
7 | PC-3 [JPC-3] | 1.04 | 1.01 | 1.05 | 0.983 | 0.994 | 0.564 | 0.833 | 0.529 | 0.357 | 0.977 | – | 0.921 | 1.06 | 1 | 0.882 | 0.915 | 0.693 | 0.345
8 | PC-14 | 1.01 | 1.15 | 1.2 | 1.01 | 0.953 | 0.72 | 0.876 | 0.29 | 0.185 | 1.01 | 0.83 | 0.888 | 0.95 | 0.938 | 0.273 | 0.244 | 0.127 | 0.088
9 | RERF-LC-KJ | 1.04 | 1.12 | 1.05 | 1.01 | 0.937 | 0.871 | 0.839 | 0.542 | 0.373 | 0.999 | 1.01 | 0.934 | 1.01 | 0.948 | 0.805 | 0.725 | 0.449 | 0.158
10 | SK-LU-1 | 0.953 | 1.29 | 1.11 | 1.15 | 1.05 | 0.719 | 0.575 | 0.358 | 0.276 | 1.05 | 1.05 | 0.878 | 0.997 | 1.04 | 0.188 | 0.19 | 0.207 | 0.173
11 | SK-MES-1 | 1.05 | 1.16 | 1.01 | 1.05 | 0.977 | 0.873 | 0.799 | 0.327 | 0.236 | 0.925 | 0.935 | 0.942 | 0.96 | 0.998 | 0.293 | 0.284 | 0.22 | 0.186
12 | SW 900 | 0.716 | 0.93 | 1.02 | 0.683 | 0.62 | 0.51 | 0.787 | 0.497 | 0.432 | 0.884 | 0.684 | 0.685 | 1.03 | 0.789 | 0.688 | 0.707 | 0.509 | 0.488
13 | SW 1573 | 1.01 | 1.16 | 0.954 | 1.07 | 0.802 | 0.571 | 0.709 | 0.271 | 0.142 | 1.05 | 0.84 | 0.917 | 0.969 | 0.893 | 0.317 | 0.544 | 0.161 | 0.108

From the supplement of paper PMC10307832
